From article PMC8041276 (ACS Chemical Neuroscience, 2021)
Read-outs that look alike come from different tables or passages of the source.

Columns and labels:
[1] = target: 5-HT6R (Homo sapiens, UniProt P50406); experiment: [3H]-LSD radioligand binding assay, HEK293 cells stably expressing human 5-HT6R; design: expressed in transfected cells; conditions: mean of three independent experiments
Method: Final compounds were evaluated in the [^3H]-LSD binding assay using HEK293 cells with stable expression of human 5-HT6R. […] Because the fluorine atom might affect the affinity at target protein as well as physicochemical and pharmacokinetic properties of compound,[22] fluorine substitution at the 2-phenyl ring was applied. […] The analysis of the binding mode of 18 and 28 (Figure 2A) confirmed that the 2-phenyl moiety is placed in the hydrophobic cavity between transmembrane domains (TMs) 4–6.
All experiments were carried out according to the previously published procedures.[41]−[43] HEK293 cells stably expressing human 5-HT1A, 5-HT6, 5-HT7b, and D2L receptors (prepared with the use of Lipofectamine 2000) or CHO-K1 cells with plasmid containing the sequence coding for the human serotonin 5-HT2A receptor (PerkinElmer) were maintained at 37 °C in a humidified atmosphere containing 5% CO2 and grown in Dulbecco’s modified Eagle’s medium containing 10% dialyzed fetal bovine serum and 500 μg/mL G418 sulfate. For membrane preparation, cells were cultured in 150 cm^2 flasks, grown to 90% confluence, washed twice with prewarmed to 37 °C phosphate buffered saline (PBS), and centrifuged (200g) in PBS containing 0.1 mM EDTA and 1 mM dithiothreitol. Prior to membrane preparation, pellets were stored at −80 °C. Cell pellets were thawed and homogenized in 10 volumes of assay buffer using an Ultra Turrax tissue homogenizer and centrifuged twice at 35 000g for 15 min at 4 °C, with incubation for 15 min at 37 °C between the centrifugations. The composition of the assay buffers was experimentally selected to achieve the maximum signal window (more details in Supporting Information). All assays were carried out in a total volume of 200 μL in 96-well plates for 1 h at 37 °C except 5-HT1AR and 5-HT2AR which were incubated at room temperature and 27 °C, respectively. The process of equilibration was terminated by rapid filtration through Unifilter plates with a 96-well cell harvester, and radioactivity retained on the filters was quantified on a Microbeta plate reader (PerkinElmer, USA). For displacement studies the assay samples contained the following as radioligands (PerkinElmer, USA): 2.5 nM [^3H]-8-OH-DPAT (135.2 Ci/mmol) for 5-HT1AR; 1 nM [^3H]-ketanserin (53.4 Ci/mmol) for 5-HT2AR; 2 nM [^3H]-LSD (83.6 Ci/mmol) for 5-HT6R; 0.8 nM [^3H]-5-CT (39.2 Ci/mmol) for 5-HT7R or 2.5 nM [^3H]-raclopride (76.0 Ci/mmol) for D2LR. Nonspecific binding was defined in the presence of 10 μM 5-HT in 5-HT1AR and 5-HT7R binding experiments, whereas 20 μM mianserin, 10 μM methiothepine, and 10 μM haloperidol were used in 5-HT2AR, 5-HT6R, and D2LR assays, respectively. Each compound was tested in triplicate at seven concentrations (10^–10–10^–4 M). The inhibition constants (Ki) were calculated from the Cheng–Prusoff equation.[44]

[2] = In vivo pharmacokinetic study, plasma and brain; design: species or system male Wistar rats; conditions: male, Wistar, po, rat; for AUC(0-t) / Cmax / MRT / Tmax / half-life: 10 mg/kg p.o.; for half-life: read-out: t0.5 (terminal half-life)
Method: Subsequently, the pharmacokinetic profile of 27 and 28 was assessed in male Wistar rats after single intragastric administration at the dose of 10 mg/kg. The studied compounds were rapidly absorbed and crossed the blood–brain barrier, reaching the Cmax in 5 min in both plasma and brain.
For LC–MS/MS analyses, an HPLC Nexera system (Shimadzu, Kyoto, Japan) combined with the triple quadrupole API 3200 mass spectrometer (SCIEX, Framingham, MA, USA) interfaced via an electrospray source and controlled by Analyst software version 1.5.2 (SCIEX, Framingham, MA, USA) was applied.
The chromatographic separation was performed on Acclaim Polar Advantage II (3.0 mm × 74 mm, 3 μm, 120A, Dionex, USA) analytical column using the mobile phase composed of eluent A, HPLC grade acetonitrile acidified with 0.1% (v/v) formic acid, and eluent B, HPLC grade water with 0.1% (v/v) formic acid. The elution gradient started with 90% of eluent B, increasing to 90% of eluent A over 5 min, returned to 90% of eluent B over 5 min, and maintained at 90% of eluent B for 5 min. The mobile phase flow rate was set at 400 μL/min. The injection volume was 20 μL, and the total time of analysis was 15 min. The temperatures of the column thermostat and the autosampler were set at 40 and 10 °C, respectively.
For increased sensitivity and selectivity, the MS/MS data acquisition was performed in the selected reaction monitoring (SRM) mode. The ions measured were m/z 585.1 (Q1) and m/z 516.2 (Q3) for compounds 27 and 28 and m/z 305 (Q1) and m/z 248 (Q3) for IS. The quantification was done via peak area ratio.
Protein precipitation with acetonitrile was used for purification of plasma and brain homogenates. The whole brain was homogenized using an electric tissue homogenizer in an appropriate amount of phosphate buffer (pH 7.4) in 1:2.5 ratio. Thereafter, a volume of 100 μL of plasma or brain homogenate was transferred to 2 mL Eppendorf tubes, and a 5 μL aliquot of the internal standard (IS, PH002437, Merck, Darmstadt, Germany) in working solution (5 μg/mL) was added and vortex-mixed for 10 s. Thereafter, 200 μL of acetonitrile was added and mixed for 20 min, followed by centrifugation (28 672g) for 10 min at 4 °C. The supernatant was transferred to chromatographic vials, and 20 μL was injected into the analytical column.
A group of 64 male, 8-week-old, Wistar strain outbred rats weighing between 200 and 220 g each were purchased from the Animal House at the Faculty of Pharmacy, Jagiellonian University Medical College, Krakow (Poland) and housed in standard polycarbonate cages, in groups of four animals per cage. Environmental conditions during the study were constant: relative humidity 50–60%, temperature 22 ± 2 °C, normal 12 h light–dark cycle (7 a.m. to 7 p.m. light). Standard rodent chow and water were available ad libitum. Compounds 27 and 28 were dissolved in saline and administered by intragastric gavage at a dose of 10 mg/kg, and the animals were sacrificed at specific time-points: 0 min, predose (n = 4), 5 min (n = 4), 15 min (n = 4), 30 min (n = 4), 60 min (n = 4), 120 min (n = 4), 240 min (n = 4), and 480 min (n = 4) after administration. Animals were deeply anaesthetized by ip injections of 50 mg/kg ketamine plus 8 mg/kg xylazine before sacrifice. First, the blood was collected into heparinized tubes, and the blood samples were centrifuged at 1000g for 10 min to obtain plasma. Following the animals’ euthanasia, the whole brain was collected. The plasma and brain samples were immediately frozen at −80 °C for future analysis. All experimental procedures were carried out in accordance with EU Directive 2010/63/EU and approved by the I Local Ethics Committee for Experiments on Animals of the Jagiellonian University in Krakow, Poland (No. 83/2018).

5-HT6R, sequence (P50406 whole entry, the tested form may be a part): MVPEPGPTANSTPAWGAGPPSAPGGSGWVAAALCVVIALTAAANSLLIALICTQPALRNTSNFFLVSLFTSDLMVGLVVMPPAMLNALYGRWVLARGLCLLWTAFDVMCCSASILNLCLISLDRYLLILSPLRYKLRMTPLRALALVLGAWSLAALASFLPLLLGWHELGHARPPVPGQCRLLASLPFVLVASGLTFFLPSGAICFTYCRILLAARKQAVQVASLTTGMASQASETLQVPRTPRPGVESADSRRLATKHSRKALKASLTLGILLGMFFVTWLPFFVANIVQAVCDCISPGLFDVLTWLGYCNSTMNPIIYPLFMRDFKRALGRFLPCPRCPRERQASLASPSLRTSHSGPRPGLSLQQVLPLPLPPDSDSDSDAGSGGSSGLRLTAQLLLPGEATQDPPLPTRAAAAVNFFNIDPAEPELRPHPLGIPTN

Row | Structure (SMILES) | Ki [1] | Kp ([2]; brain/plasma, 10 mg/kg intragastric, read-out: brain/plasma ratio) | AUC(0-t) ([2]; brain) | Cmax ([2]; brain) | MRT ([2]; brain) | Tmax ([2]; brain) | half-life ([2]; brain) | AUC(0-t) ([2]; plasma) | Cmax ([2]; plasma) | MRT ([2]; plasma) | Tmax ([2]; plasma) | half-life ([2]; plasma)
1 | O=C(N[C@@H]1CCNC1)c1ccn(S(=O)(=O)c2cccc(Cl)c2)c1-c1ccc(F)cc1 [Compound 27, (R)-2-(4-Fluorophenyl)-1-[(3-chlorophenyl)sulfonyl]-N-(pyrrolidin-3-yl)-1H-pyrrole-3-carboxamide] | 30 nM | 0.63 | 812 ng·h/mL | 427 ng/g | 3.02 h | 5 min | 4.18 h | 1290 ng·h/mL | 1040 ng/mL | 2.72 h | 5 min | 1.96 h
2 | O=C(N[C@H]1CCNC1)c1ccn(S(=O)(=O)c2cccc(Cl)c2)c1-c1ccc(F)cc1 [Compound 28, (S)-2-(4-Fluorophenyl)-1-[(3-chlorophenyl)sulfonyl]-N-(pyrrolidin-3-yl)-1H-pyrrole-3-carboxamide] | 22 nM |  | 289 ng·h/mL | 51.7 ng/g | 4.43 h | 5 min |  | 3390 ng·h/mL | 3500 ng/mL | 3.35 h | 5 min | 4.95 h
